Source: PubChem BioAssay AID2060906 (Molecular Pharmacology Branch, DTP, NCI, 2025)

Test system: 485176-168-R4-J1-PDC complex spheroid growth
Assay: Anticancer human tumor 485176-168-R4-J1-PDC patient-derived pancreatic adenocarcinoma cell line growth inhibition [RAS]
Details: for IC50: curve of first compound; for viability, T/C: stronger effect = lower value
How it was run: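 Tumour cells grown as complex spheroids with HUVEC endothelial cells and mesenchymal stem cells, treated with RAS pathway inhibitor combinations. Each agent spans half-log steps from near clinical Cmax, or 10 microM where Cmax is unknown.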
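Note: spheroids exposed to compounds for seven days before readout.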
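Throughout, for viability, T/C: luminescence viability expressed relative to DMSO vehicle wells set as 100%.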

C=CC(=O)Nc1cc(Nc2nccc(-c3cn(C)c4ccccc34)n2)c(OC)cc1N(C)CCN(C)C + CCn1c(-c2cc(N3CCN(C)CC3)cnc2C(C)OC)c2c3cc(ccc31)-c1csc(n1)CC(NC(=O)C1CC1C)C(=O)N1CCCC(N1)C(=O)OCC(C)(C)C2
IC50 (second compound 0.000949 µM): > 1000 nM
IC50 (second compound 0.003 µM): > 1000 nM
IC50 (second compound 0.00949 µM): > 1000 nM
IC50 (second compound 0.03 µM): > 1000 nM
IC50 (second compound 0.0949 µM): > 1000 nM
IC50 (second compound 0.3 µM): > 1000 nM
viability, T/C (second compound 0.000949 µM, first compound 0.00316 µM): 88.1%
viability, T/C (second compound 0.000949 µM, first compound 0.01 µM): 91.4%
viability, T/C (second compound 0.000949 µM, first compound 0.0316 µM): 95.6%
viability, T/C (second compound 0.000949 µM, first compound 0.1 µM): 89.9%
viability, T/C (second compound 0.000949 µM, first compound 0.316 µM): 79.7%
viability, T/C (second compound 0.000949 µM, first compound 1 µM): 69.4%
viability, T/C (second compound 0.003 µM, first compound 0.00316 µM): 92.8%
viability, T/C (second compound 0.003 µM, first compound 0.01 µM): 80.3%
viability, T/C (second compound 0.003 µM, first compound 0.0316 µM): 78.6%
viability, T/C (second compound 0.003 µM, first compound 0.1 µM): 76%
viability, T/C (second compound 0.003 µM, first compound 0.316 µM): 86.4%
viability, T/C (second compound 0.003 µM, first compound 1 µM): 60.5%
viability, T/C (second compound 0.00949 µM, first compound 0.00316 µM): 91.8%
viability, T/C (second compound 0.00949 µM, first compound 0.01 µM): 93.3%
viability, T/C (second compound 0.00949 µM, first compound 0.0316 µM): 73.7%
viability, T/C (second compound 0.00949 µM, first compound 0.1 µM): 94%
viability, T/C (second compound 0.00949 µM, first compound 0.316 µM): 83.2%
viability, T/C (second compound 0.00949 µM, first compound 1 µM): 62.9%
viability, T/C (second compound 0.03 µM, first compound 0.00316 µM): 70%
viability, T/C (second compound 0.03 µM, first compound 0.01 µM): 87.7%
viability, T/C (second compound 0.03 µM, first compound 0.0316 µM): 85.2%
viability, T/C (second compound 0.03 µM, first compound 0.1 µM): 90.6%
viability, T/C (second compound 0.03 µM, first compound 0.316 µM): 63.4%
viability, T/C (second compound 0.03 µM, first compound 1 µM): 57.9%
viability, T/C (second compound 0.0949 µM, first compound 0.00316 µM): 77.8%
viability, T/C (second compound 0.0949 µM, first compound 0.01 µM): 83%
viability, T/C (second compound 0.0949 µM, first compound 0.0316 µM): 81.2%
viability, T/C (second compound 0.0949 µM, first compound 0.1 µM): 61.9%
viability, T/C (second compound 0.0949 µM, first compound 0.316 µM): 83.3%
viability, T/C (second compound 0.0949 µM, first compound 1 µM): 64.3%
viability, T/C (second compound 0.3 µM, first compound 0.00316 µM): 81.6%
viability, T/C (second compound 0.3 µM, first compound 0.01 µM): 72.9%
viability, T/C (second compound 0.3 µM, first compound 0.0316 µM): 73.4%
viability, T/C (second compound 0.3 µM, first compound 0.1 µM): 84.2%
viability, T/C (second compound 0.3 µM, first compound 0.316 µM): 71.4%
viability, T/C (second compound 0.3 µM, first compound 1 µM): 50.2%
